Data published in ChEMBL document CHEMBL5244222, “A comprehensive review on xanthone derivatives as α-glucosidase inhibitors” (Eur J Med Chem, 2018).
≈ marks a conversion by molar mass, not a printed value.

What was measured:
Format in all cases: protein assay
Alpha-glucosidase [1] = molecular target: T1, Alpha-glucosidase (Saccharomyces cerevisiae S288c, UniProt P53341+P38158+P07265); assay: Inhibition of yeast alpha-glucosidase assessed as release of p-nitrophenol using PNPG as substrate preincubated for 10 mins followed by substrate addition and measured after 35 mins by microplate photometer analysis
Alpha-glucosidase [2] = molecular target: T1, Alpha-glucosidase; assay: Inhibition of yeast alpha-glucosidase using p-nitrophenyl-alpha-D-glucopyranoside as substrate incubated for 30 mins by spectrophotometric assay
Alpha-glucosidase [3] = molecular target: T1, Alpha-glucosidase; assay: Inhibition of Saccharomyces cerevisiae alpha-glucosidase assessed as release of p-nitrophenol using pNPG as substrate preincubated for 15 mins followed by substrate addition and measured after 15 mins by plate reader analysis
Alpha glucosidase [4] = molecular target: T2, Alpha glucosidase (Homo sapiens, UniProt O43451+P10253+P14410+Q2M2H8); assay: Inhibition of alpha-glucosidase (unknown origin) using PNPG as substrate incubated for 30 mins by absorbance assay
Alpha-glucosidase [5] = molecular target: T1, Alpha-glucosidase; assay: Mixed-type inhibition of Saccharomyces cerevisiae alpha-glucosidase using PNPG as substrate incubated for 30 mins by Lineweaver-Burk double-reciprocal plot analysis
Alpha-glucosidase [6] = molecular target: T1, Alpha-glucosidase; assay: Inhibition of Saccharomyces cerevisiae alpha-glucosidase using maltose as substrate incubated for 30 mins by spectrophotometric assay
Alpha-glucosidase [7] = molecular target: T1, Alpha-glucosidase; assay: Inhibition of Saccharomyces cerevisiae alpha-glucosidase using PNPG as substrate incubated for 30 mins by spectrophotometric assay
Alpha-glucosidase [8] = molecular target: T1, Alpha-glucosidase; assay: Inhibition of Saccharomyces cerevisiae alpha-glucosidase assessed as release of p-nitrophenol using pNPG as substrate preincubated for 15 mins followed by substrate addition and measured after 5 mins by spectrophotometric assay
Alpha glucosidase [9] = molecular target: T2, Alpha glucosidase; assay: Inhibition of alpha-glucosidase (unknown origin) at 100 uM
Alpha-glucosidase [10] = molecular target: T1, Alpha-glucosidase; assay: Inhibition of Saccharomyces cerevisiae alpha-glucosidase using PNPG as substrate preincubated for 15 mins followed by substrate addition and measured after 30 mins by spectrophotometric assay

## C=C(C)/C=C/c1c(O)cc2oc3c(/C=C/C(=C)C)c(O)c(OC)cc3c(=O)c2c1O
Alpha-glucosidase [1]
  IC50: 53.5 µM

## COc1cc2c(=O)c3c(O)c(C/C=C(\C)CCC=C(C)C)c(O)cc3oc2cc1O [COWAXANTHONE]
Alpha-glucosidase [2]
  IC50: 44 µM

## COc1c(O)cc2oc3ccc(O)c(OC)c3c(=O)c2c1O
Alpha-glucosidase [3]
  IC50: 63.4 µg/mL (≈ 208 µM)

## O=c1c2c(O)cc(O)cc2oc2ccc(O)c(O)c12
Alpha glucosidase [4]
  IC50: 23.2 µM

## C=C(C)/C=C/c1c(O)cc2oc3cc(O)c(OC)c(/C=C/C(=C)C)c3c(=O)c2c1O
Alpha-glucosidase [2]
  IC50: 11.4 µM
Alpha-glucosidase [5]
  Ki: 7.3 µM
Alpha-glucosidase [6]
  IC50: 53.3 µM
Alpha-glucosidase [7]
  IC50: 5 µM

## C=C(C)/C=C/c1c(O)c(OC)c(/C=C/C(=C)C)c2c(=O)c3c(O)c(CC(O)C(=C)C)c(O)cc3oc12 (configuration not stated)
Alpha-glucosidase [2]
  IC50: 8.3 µM

## COc1ccc2oc3ccc(O)cc3c(=O)c2c1
Alpha-glucosidase [3]
  IC50: 77.3 µg/mL (≈ 319 µM)

## C=C(C)/C=C/c1c(O)c(CC=C(C)C)c2oc3c(O)cccc3c(=O)c2c1O
Alpha-glucosidase [5]
  Ki: 12.3 µM
Alpha-glucosidase [6]
  IC50: 137.2 µM
Alpha-glucosidase [7]
  IC50: 21.5 µM

## COc1c(O)cc(O)c2c(=O)c3cc(O)ccc3oc12
Alpha-glucosidase [3]
  IC50: 12.8 µg/mL (≈ 46.7 µM)

## C=C(C)/C=C/[C@@]1(C)C=CC2=C(O1)C(CC=C(C)C)=C1O[C@]34C(C(=O)[C@@H]1C2O)[C@@H](OCC)[C@@H]1C[C@H]3C(C)(C)O[C@@]4(C/C=C(\C)C(=O)O)C1=O (some centres not stated)
Alpha-glucosidase [8]
  IC50: > 300 µM

## COc1cc(OC/C=C(\C)C/C=C(\C)CC=C(C)C)c2c(=O)c3c(O)ccc(OC)c3oc2c1
Alpha glucosidase [9]
  inhibition: 66.2%

## C=C(C)/C=C/c1c(OC)c(OC)cc2oc3cc(O)c(CC(O)C(=C)C)c(O)c3c(=O)c12 (configuration not stated)
Alpha-glucosidase [2]
  IC50: 94.4 µM

## CC(C)=CC/C(C)=C/Cc1c(O)c(CC=C(C)C)c2oc3c(O)ccc(O)c3c(=O)c2c1O
Alpha-glucosidase [10]
  IC50: 227 µM

## C=C(C)/C=C/c1c(O)cc2oc3cc(O)c(OC)c(C/C=C(\C)CC=C(C)C)c3c(=O)c2c1O
Alpha-glucosidase [2]
  IC50: 20.7 µM
Alpha-glucosidase [1]
  IC50: 10.7 µM

## C=C(C)/C=C/c1cc(O)c(O)c2oc3c(C/C=C(/C)CC=C(C)C)c(OC)cc(O)c3c(=O)c12
Alpha-glucosidase [1]
  IC50: 7.8 µM

## CC1Oc2cc(O)c3c(=O)c4c(O)ccc(O)c4oc3c2C1(C)C (configuration not stated)
Alpha-glucosidase [2]
  IC50: 21.2 µM

## C=C(C)/C=C/c1c(O)cc2oc3cc(O)c(OC)c(CC(=O)C(=C)C)c3c(=O)c2c1O
Alpha-glucosidase [5]
  Ki: 8.1 µM
Alpha-glucosidase [6]
  IC50: 85.7 µM
Alpha-glucosidase [7]
  IC50: 9.8 µM

## CC(C)=CC/C(C)=C/COc1cc(O)c2c(=O)c3ccccc3oc2c1
Alpha glucosidase [9]
  inhibition: 43.1%

## C=C(C)/C=C/[C@@]1(C)C=CC2=C(O1)C(CC=C(C)C)=C1O[C@]34C(=C[C@@H]5C[C@H]3C(C)(C)O[C@@]4(CC=C(C)C)C5=O)C(=O)[C@@H]1C2O (some centres not stated)
Alpha-glucosidase [8]
  IC50: > 300 µM

## C=C(C)/C=C/c1c(O)cc(O)c2c(=O)c3c(C/C=C(/C)CC=C(C)C)c(OC)c(O)cc3oc12
Alpha-glucosidase [1]
  IC50: 14.1 µM

## C=C(C)/C=C/C1(C)C=CC2=C(O1)C(CC=C(C)C)=C1O[C@]34C(C(=O)[C@@H]1C2O)[C@@H](O)[C@@H]1C[C@H]3C(C)(C)O[C@@]4(C/C=C(\C)C(=O)O)C1=O (some centres not stated)
Alpha-glucosidase [8]
  IC50: 194.7 µM

## CC(C)=CCOc1cc(O)c2c(=O)c3ccccc3oc2c1
Alpha glucosidase [9]
  inhibition: 31%

## C=C(C)C1Cc2c(cc3oc4cc(O)c(OC)c(CC=C(C)C)c4c(=O)c3c2O)O1 (configuration not stated) [MANGOSTENONE F]
Alpha-glucosidase [5]
  Ki: 18.1 µM
Alpha-glucosidase [6]
  IC50: 191.2 µM
Alpha-glucosidase [7]
  IC50: 21 µM

## COc1cc(O)c2c(=O)c3cc(O)ccc3oc2c1OC
Alpha-glucosidase [3]
  IC50: 13.2 µg/mL (≈ 45.8 µM)

## COc1cc(OC/C=C(\C)C/C=C(\C)C/C=C(\C)C/C=C(\C)C/C=C(\C)C/C=C(\C)C/C=C(\C)C/C=C(\C)CC=C(C)C)c2c(=O)c3c(O)ccc(OC)c3oc2c1
Alpha glucosidase [9]
  inhibition: 34.5%

## O=c1c2ccccc2oc2cc(O)cc(O)c12
Alpha glucosidase [4]
  IC50: 35.2 µM

## C=C(C)/C=C/c1c(OC)c(O)cc2oc3cc4c(c(O)c3c(=O)c12)CC(O)C(C)(C)O4 (configuration not stated)
Alpha-glucosidase [5]
  Ki: 23 µM
Alpha-glucosidase [6]
  IC50: 102.5 µM
Alpha-glucosidase [7]
  IC50: 30.5 µM

## COc1c(O)cc2oc3cc(O)c(C/C=C(\C)CO)c(O)c3c(=O)c2c1C/C=C(/C)CC=C(C)C
Alpha-glucosidase [2]
  IC50: 168.7 µM
Alpha-glucosidase [1]
  IC50: 28 µM

## CC(C)=CCC1=C2O[C@]34C(C[C@@H]5C[C@H]3C(C)(C)O[C@@]4(C/C=C(\C)C(=O)O)C5=O)C(=O)[C@@H]2C(O)C2=C1OC(C)C=C2 (some centres not stated)
Alpha-glucosidase [8]
  IC50: > 300 µM

## O=c1c2c(O)cc(O)cc2oc2cc(O)cc(O)c12
Alpha glucosidase [4]
  IC50: 39 µM

## C=C(C)/C=C/c1c(OC)c(OC)cc2oc3cc(O)c(CC=C(C)C)c(O)c3c(=O)c12
Alpha-glucosidase [2]
  IC50: 18.2 µM

## C=C(C)/C=C/[C@]1(C)C=CC2=C(O1)C(CC=C(C)C)=C1O[C@]34C(C(=O)[C@@H]1C2O)[C@@H](OC)[C@@H]1C[C@H]3C(C)(C)O[C@@]4(C/C=C(\C)C(=O)O)C1=O (some centres not stated)
Alpha-glucosidase [8]
  IC50: 108.75 µM

## COc1ccc2oc3ccc(O)cc3c(=O)c2c1OC
Alpha-glucosidase [3]
  IC50: 48.5 µg/mL (≈ 178 µM)

## COc1cc(O)c2c(=O)c3c(C/C=C(\C)CCC=C(C)C)c(OC)c(O)cc3oc2c1
Alpha-glucosidase [1]
  IC50: 12.4 µM

## C=Cc1cc2oc3cc(O)cc(O)c3c(=O)c2c(OC)c1O
Alpha glucosidase [4]
  IC50: 26.3 µM

## COc1ccc(O)c2c(=O)c3cc(O)ccc3oc12
Alpha-glucosidase [3]
  IC50: 27.6 µg/mL (≈ 107 µM)

## COc1cc(OC/C=C(\C)CC=C(C)C)c2c(=O)c3c(O)ccc(OC)c3oc2c1
Alpha glucosidase [9]
  inhibition: 30.9%

## COc1c(O)cc2oc3ccc(O)cc3c(=O)c2c1O
Alpha-glucosidase [3]
  IC50: 7.6 µg/mL (≈ 27.7 µM)

## CC(C)=CCC/C(C)=C/Cc1c(C)c(CC=C(C)C)c2c(c1O)C(=O)C1=C[C@@H]3C[C@H]4C(C)(C)O[C@@](C/C=C(\C)C(=O)O)(C3=O)[C@@]14O2
Alpha-glucosidase [8]
  IC50: > 300 µM

## C=C(C)/C=C/[C@@]1(C)C=CC2=C(O1)C(CC=C(C)C)=C1O[C@]34C(C(=O)[C@@H]1C2O)[C@@H](OC)[C@@H]1C[C@H]3C(C)(C)O[C@@]4(C/C=C(\C)C(=O)O)C1=O (some centres not stated)
Alpha-glucosidase [8]
  IC50: 282.7 µM

## C=C(C)/C=C/c1c(O)cc2oc3cc(O)c(O)c(C/C=C(\C)CC=C(C)C)c3c(=O)c2c1O
Alpha-glucosidase [1]
  IC50: 1.7 µM

## COc1c(CC=C(C)C)c(O)c2c(=O)c3c(O)ccc(O)c3oc2c1CC=C(C)C
Alpha-glucosidase [10]
  IC50: 76 µM

## COc1cc(OCC=C(C)C)c2c(=O)c3c(O)ccc(OC)c3oc2c1
Alpha glucosidase [9]
  inhibition: 42.1%

## C=C(C)C1CCC2(C)CC1c1c(O)c3c(c(CC=C(C)C)c1O2)O[C@]12C(=C[C@@H]4C[C@H]1C(C)(C)O[C@@]2(C/C=C(\C)C(=O)O)C4=O)C3=O (some centres not stated)
Alpha-glucosidase [8]
  IC50: > 300 µM

## COc1c(O)cc2oc3cc(O)c(C/C=C(\C)COC(C)=O)c(O)c3c(=O)c2c1C/C=C(/C)CC=C(C)C
Alpha-glucosidase [2]
  IC50: 18.2 µM
Alpha-glucosidase [1]
  IC50: 70.3 µM

## CC(C)=CCC1=C2O[C@]34C(=C[C@@H]5C[C@H]3C(C)(C)O[C@@]4(CC=C(C)C)C5=O)C(=O)[C@@H]2C(O)C2=C1OC(C)C=C2 (some centres not stated)
Alpha-glucosidase [8]
  IC50: 140.95 µM

## C=C(C)/C=C/c1c(OC)cc(O)c2c(=O)c3ccc(O)c(O)c3oc12
Alpha-glucosidase [1]
  IC50: 9.4 µM

## COc1cc(O)c2c(=O)c3c(OC)c(O)c(O)cc3oc2c1
Alpha glucosidase [4]
  IC50: 44.5 µM

## C=C(C)/C=C/c1c(OC)cc2oc3cc(O)c(OC)c(/C=C/C(=C)C)c3c(=O)c2c1O
Alpha-glucosidase [5]
  Ki: 14.8 µM
Alpha-glucosidase [6]
  IC50: 192 µM
Alpha-glucosidase [7]
  IC50: 14.4 µM

## C=C(C)/C=C/c1c(O)cc2oc3cc(O)c(O)c(/C=C/C(=C)C)c3c(=O)c2c1O
Alpha-glucosidase [5]
  Ki: 1.4 µM
Alpha-glucosidase [6]
  IC50: 17.5 µM
Alpha-glucosidase [7]
  IC50: 1.5 µM

## COc1c(O)ccc2oc3c4c(c(CC=C(C)C)c(O)c3c(=O)c12)OC(C(C)(O)CCC=C(C)C)C4 (configuration not stated)
Alpha-glucosidase [2]
  IC50: 69 µM

## COc1cc(OC)c2c(=O)c3c(O)c(OC)ccc3oc2c1O
Alpha-glucosidase [3]
  IC50: 59 µg/mL (≈ 185 µM)

## O=c1c2cc(O)ccc2oc2cccc(O)c12
Alpha-glucosidase [3]
  IC50: 35.8 µg/mL (≈ 157 µM)
Alpha-glucosidase [10]
  IC50: 145 µM
